# Ends that are not written are not given here.
# Tested on: MRSA
# Experiment: FITC assay to monitor cellular uptake of peptides (fluorescence microscopy)
# Type: cell-based, Staphylococcus aureus
# Conditions: 2 hours post-treatment with 1 μM of FITC-peptide agents
# Procedure: An FITC assay may be utilized, to monitor cellular uptake of peptides. Peptides were conjugated to fluorescein isothiocyanate (FITC) to monitor uptake using florescence microscopy. FIG. 2A-2B show assay results for several peptides as tested in MRSA (FIG. 2A) and AcB (FIG. 2B) (fluorescent overlays 2 hours post-treatment with 1 μM of FITC peptide agents, scale bar=100 μm).
# An FITC assay was utilized to monitor cellular uptake of peptides. Peptides were conjugated to fluorescein isothiocyanate (FITC) to monitor uptake using, florescence microscopy.
row,Sequence,cellular entry of FITC-peptide
1,"GIGKWLHSAKKFGKAFVGEIMNS (also: FITC label, site not given here) [Magainin-FITC, Magainin 2 cell penetrating peptide conjugated to fluorescein isothiocyanate (FITC)]",effective for entry into MRSA
2,"RFFRFFRFFR (also: FITC label, site not given here) [cell penetrating peptide, tested conjugated to FITC]",effective for cellular entry
3,"KFFKFFKFFK (also: FITC label, site not given here) [cell penetrating peptide, tested conjugated to FITC]",effective for cellular entry

# Source: patent US9909123B2, “Antisense molecules for treatment of Staphylococcus aureus infection” (priority 2013, dated 2018)
